Columns and labels:
[1] = system: Trialeurodes vaporariorum; test: whole plant or invertebrate; format: in vivo, Trialeurodes vaporariorum (greenhouse whitefly); settings: 144 h, initial test concentration of 0.1% w (1000 ppm), 6 days, read-out: mortality grade T.v.
Description: (§1) Insecticidal activity of compounds of general formula I was assessed against the following pests: […]
Trialeurodes vaporariorum (greenhouse whitefly)
(§2) The test methods employed for each species appear below. In each test, unless otherwise stated, solutions or suspensions of test compound were made up over a range of concentrations in water (initially 0.1% w) containing 10%w acetone and 0.025% w "TRITON X-100" (trade mark) surface active agent (the condensation product of ethylene oxide with an alkyl phenol). These solutions were sprayed at a rate equivalent to 340 liters per hectare (3.4×10^-5 m^3 /m^2) onto Petri dishes containing either test species per se or diet onto which test species were subsequently introduced, as indicated. In some assays leaf discs infested with test species were sprayed whilst other assays involved the spraying of plants which were infested subsequently with test species after the spray solution had dried. The tests were all conducted under normal insectary conditions (23° C.±2° C., fluctuating humidity and light).
Mortality assessments were made as indicated below, in terms of percentage mortality figures. In each test a LC50 (the dosage of active material required to kill half of the test species) for the compound was calculated from the mortality figures and compared with the corresponding LC50 for a standard insecticide, ethyl parathion, in the same test. The results are expressed as toxicity indices thus: [formula] (i) Spodoptera littoralis (7 day)(Sl 7D) Test solutions were sprayed as indicated above onto Petri dishes containing a nutritious diet for Egyptian cotton leafworm larvae. When the spray deposit had dried, each dish was infested with ten 2nd instar larvae. Mortality assessments were made 7 days after spraying.
(iii) Trialeurodes vaporariorum (Tv)
French bean plants (Phaseolus vulgaris) with two fully expanded leaves were placed in a breeding culture of T.vaporariorum, also on French bean plants, which were then disturbed to ensure resettlement on the introduced plants. During the subsequent 24 hour period, eggs were deposited and kept at 27° C., with 14 hours photoperiod. All adult whiteflies were then carefully removed, leaving egg samples of a known age. After eight days the majority of eggs had hatched. Leaf discs containing the newly hatched nymphs were then cut from the leaves and transferred to moist filter paper. The discs were examined under a low-powered microscope to determine the exact number of 1st instar nymphs per disc and to remove any unhatched eggs. On average, 70-100 nymphs were found per disc. The discs were transferred into Petri dishes and sprayed with test solutions as described above. After 6 days percentage mortalities were assessed.

Tetranychus urticae = test: Acaricidal activity (mite life cycle), Tetranychus urticae; format: in vivo, Tetranychus urticae (glasshouse red spider mite); settings: larvae on leaf discs sprayed at 340 liters per hectare; emergence of adults after 7 days
Description: Acaricidal activity of some compounds of formula I was assessed, employing adult female glasshouse red spider mites, Tetranychus urticae (T.u.), by the following procedure.
2 cm diameter leaf discs cut from the leaves of French bean plants were placed, underside uppermost, on 5.5 cm diameter filter papers, kept moist by a cotton wool wick dipped in water.
Each leaf disc was infested with 25 to 30 adult female mites which were removed after 6 hours, leaving bout 50 eggs on each disc. Within 5 days the eggs hatched. The freshly emerged larvae on the leaf discs were sprayed with solutions of test compound made up as in Example 156 above, at a rate equivalent to 340 liters per hectare (3.4×10^-5 m^3 /m^2).
The discs were thereafter kept under normal laboratory conditions (23° C.±2° C., fluctuating humidity and 16 hours day length). After 7 days assessment was made of the number of mites emerging as adults.

Spodoptera littoralis = test: whole plant or invertebrate; format: in vivo, Spodoptera littoralis (Egyptian cotton leafworm); settings: 168 h, initial test concentration of 0.1% w (1000 ppm), 7 days, read-out: mortality grade S.l.
Description: as §1
Spodoptera littoralis (Egyptian cotton leafworm)
as §2, with “The tests were all conducted under normal insectary conditions (23° C.±2° C., fluctuating humidity and light).” left out
Mortality assessments were made as indicated below, in terms of percentage mortality figures. In each test a LC50 (the dosage of active material required to kill half of the test species) for the compound was calculated from the mortality figures and compared with the corresponding LC50 for a standard insecticide, ethyl parathion, in the same test. The results are expressed as toxicity indices thus: [formula] […]

O=C(NC(=O)c1c(F)cccc1F)Nc1ccc2c(c1)COC(c1ccccc1Cl)O2 (centres unmarked) [Example 80]
mortality at 1000 µg/mL [1]: 40 to 69%

O=C(NC(=O)c1c(F)cccc1F)Nc1ccc2c(c1)COC(c1ccc(Cl)cc1)O2 (centres unmarked) [Example 81]
mortality at 1000 µg/mL [1]: 40 to 69%

O=C(NC(=O)c1c(F)cccc1F)Nc1ccc2c(c1)COC(c1ccc(Cl)cc1Cl)O2 (centres unmarked) [Example 82]
LC50 (% active ingredient in spray) (Tetranychus urticae): 0.00023 % active ingredient in spray

O=C(NC(=O)c1c(F)cccc1F)Nc1ccc2c(c1)COC(c1ccc(Cl)c(Cl)c1)O2 (centres unmarked) [Example 83]
mortality at 1000 µg/mL [1]: 40 to 69%

O=C(NC(=O)c1c(F)cccc1F)Nc1ccc2c(c1)COC(c1c(Cl)cccc1Cl)O2 (centres unmarked) [Example 84]
mortality at 1000 µg/mL [1]: 40 to 69% | LC50 (% active ingredient in spray) (Tetranychus urticae): 0.00036 % active ingredient in spray

O=C(NC(=O)c1c(F)cccc1F)Nc1ccc2c(c1)COC(c1ccc(C(F)(F)F)cc1Cl)O2 (centres unmarked) [Example 85]
LC50 (% active ingredient in spray) (Tetranychus urticae): 0.00031 % active ingredient in spray

O=C(NC(=O)c1c(F)cccc1F)Nc1ccc2c(c1)COC(c1ccccc1Br)O2 (centres unmarked) [Example 87]
mortality at 1000 µg/mL [1]: 40 to 69% | LC50 (% active ingredient in spray) (Tetranychus urticae): 0.0029 % active ingredient in spray

O=C(NC(=O)c1c(F)cccc1F)Nc1ccc2c(c1)COC(c1ccc(C(F)(F)F)cc1)O2 (centres unmarked) [Example 88]
mortality at 1000 µg/mL [1]: 40 to 69%

O=C(NC(=O)c1c(F)cccc1F)Nc1ccc2c(c1)COC(c1ccc(OC(F)(F)F)cc1)O2 (centres unmarked) [Example 91]
mortality at 1000 µg/mL [1]: 40 to 69%

O=C(NC(=O)c1c(F)cccc1F)Nc1ccc2c(c1)COC(c1cccc(Cl)c1Cl)O2 (centres unmarked) [Example 92]
LC50 (% active ingredient in spray) (Tetranychus urticae): 0.085 % active ingredient in spray

O=C(NC(=O)c1c(F)cccc1F)Nc1ccc2c(c1)COC(c1ccccc1C(F)(F)F)O2 (centres unmarked) [Example 93]
LC50 (% active ingredient in spray) (Tetranychus urticae): 0.00022 % active ingredient in spray

O=C(NC(=O)c1c(F)cccc1F)Nc1ccc2c(c1)CSC(c1ccccc1F)O2 (centres unmarked) [Example 96]
mortality at 1000 µg/mL [1]: 40 to 69%

O=C(NC(=O)c1c(F)cccc1F)Nc1ccc2c(c1)CSC(c1ccc(Cl)cc1Cl)O2 (centres unmarked) [Example 98]
mortality at 1000 µg/mL [1]: 40 to 69%

O=C(NC(=O)c1c(F)cccc1F)Nc1ccc2c(c1)CSC(c1c(Cl)cccc1Cl)O2 (centres unmarked) [Example 99]
mortality at 1000 µg/mL [1]: 40 to 69%

O=C(NC(=O)c1c(F)cccc1F)Nc1ccc2c(c1)CSC(c1ccc(F)cc1F)O2 (centres unmarked) [Example 100]
mortality at 1000 µg/mL [1]: 40 to 69%

Cc1ccc(C2Oc3ccc(NC(=O)NC(=O)c4c(F)cccc4F)cc3CS2)cc1 (centres unmarked) [Example 102]
mortality at 1000 µg/mL [1]: 40 to 69%

O=C(NC(=O)c1c(F)cccc1F)Nc1ccc2c(c1)CSC(c1ccccc1C(F)(F)F)O2 (centres unmarked) [Example 103]
mortality at 1000 µg/mL [1]: 40 to 69%

O=C(NC(=O)c1c(F)cccc1F)Nc1ccc2c(c1)CSC(c1ccccc1)O2 (centres unmarked) [Example 104]
mortality at 1000 µg/mL [1]: 40 to 69%

O=C(NC(=O)c1c(F)cccc1F)Nc1ccc2c(c1)COC(c1ccc(F)cc1F)S2 (centres unmarked) [Example 108]
mortality at 1000 µg/mL (Spodoptera littoralis): 70 to 100%

O=C(NC(=O)c1c(F)cccc1F)Nc1ccc2c(c1)COC(c1ccccc1C(F)(F)F)S2 (centres unmarked) [Example 112]
mortality at 1000 µg/mL [1]: 40 to 69%

O=C(NC(=O)c1c(F)cccc1F)Nc1ccc2c(c1)COC(c1c(Cl)cccc1Cl)S2 (centres unmarked) [Example 113]
mortality at 1000 µg/mL (Spodoptera littoralis): 70 to 100% | mortality at 1000 µg/mL [1]: 40 to 69%

O=C(NC(=O)c1c(F)cccc1F)Nc1ccc2c(c1)COC(c1ccccc1Br)S2 (centres unmarked) [Example 115]
mortality at 1000 µg/mL [1]: 70 to 100%

Cc1ccccc1C1OCc2cc(NC(=O)NC(=O)c3c(F)cccc3F)ccc2S1 (centres unmarked) [Example 116]
mortality at 1000 µg/mL [1]: 40 to 69%

O=C(NC(=O)c1c(F)cccc1F)Nc1ccc2c(c1)OC(c1ccccc1)O2 (centres unmarked) [Example 125]
mortality at 1000 µg/mL [1]: 40 to 69%

O=C(NC(=O)c1c(F)cccc1F)Nc1ccc2c(c1)OC(c1ccccc1Cl)O2 (centres unmarked) [Example 126]
mortality at 1000 µg/mL [1]: 40 to 69%

O=C(NC(=O)c1c(F)cccc1F)Nc1ccc2c(c1)OC(c1cccc(Cl)c1)O2 (centres unmarked) [Example 127]
mortality at 1000 µg/mL [1]: 40 to 69%

O=C(NC(=O)c1c(F)cccc1F)Nc1ccc2c(c1)OC(c1ccc(Cl)cc1)O2 (centres unmarked) [Example 128]
mortality at 1000 µg/mL [1]: 40 to 69%

O=C(NC(=O)c1c(F)cccc1F)Nc1ccc2c(c1)OC(c1ccc(C(F)(F)F)cc1)O2 (centres unmarked) [Example 134]
LC50 (% active ingredient in spray) (Tetranychus urticae): 0.09 % active ingredient in spray

O=C(NC(=O)c1c(F)cccc1F)Nc1ccc2c(c1)OC(c1ccc(F)cc1F)O2 (centres unmarked) [Example 135]
mortality at 1000 µg/mL [1]: 40 to 69%

CCOC(=O)CC1(c2ccccc2)Oc2ccc(NC(=O)NC(=O)c3c(F)cccc3F)cc2O1 (centres unmarked) [Example 140]
mortality at 1000 µg/mL [1]: 40 to 69%

O=C(NC(=O)c1c(F)cccc1F)Nc1ccc2c(c1)SC(c1ccc(Cl)cc1Cl)O2 (centres unmarked) [Example 142, N-[[[2-(2,4-dichlorophenyl)-1,3-benzoxathiol-5-yl]amino]carbonyl]-2,6-difluorobenzamide]
LC50 (% active ingredient in spray) (Tetranychus urticae): 0.0015 % active ingredient in spray

O=C(NC(=O)c1c(F)cccc1F)Nc1ccc2c(c1)SC(c1ccccc1F)O2 (centres unmarked) [Example 143]
mortality at 1000 µg/mL [1]: 40 to 69%

O=C(NC(=O)c1c(F)cccc1F)Nc1ccc2c(c1)SC(c1ccc(Cl)c(Cl)c1)O2 (centres unmarked) [Example 145]
LC50 (% active ingredient in spray) (Tetranychus urticae): 0.053 % active ingredient in spray

O=C(NC(=O)c1c(F)cccc1F)Nc1ccc2c(c1)SC(c1ccc(F)cc1F)O2 (centres unmarked) [Example 147]
LC50 (% active ingredient in spray) (Tetranychus urticae): 0.05 % active ingredient in spray

CC1(c2ccc(Cl)c(Cl)c2)Oc2ccc(NC(=O)NC(=O)c3c(F)cccc3F)cc2S1 (centres unmarked) [Example 152]
mortality at 1000 µg/mL [1]: 40 to 69%
